Assay results taken from the NIST ThermoML archive (doi:10.1021/acs.jced.6b00718).
Numbers after ± are expanded uncertainties.

Assays:
[1] = for viscosity / mass density: 101 kPa; for viscosity / mass density / electrical conductivity: Liquid; for viscosity: Falling or rolling sphere viscometry; for mass density: Vibrating tube method; for electrical conductivity: 101.33 kPa, Alternating current cell with electrodes; for Normal melting temperature: DTA
[2] = xn = mol fraction of the nth substance listed; settings: 101 kPa, Liquid, x1 = 1; for viscosity: Falling or rolling sphere viscometry; for mass density: Vibrating tube method

CCCC#N [butanenitrile]
[1]
Settings	mass density [kg/m3]	viscosity [mPa·s]
293.15 K	791.1 ± 1.6	0.88 ± 0.05
298.15 K	786.4 ± 1.6	0.86 ± 0.05
303.15 K	781.8 ± 1.6	0.84 ± 0.05
313.15 K	772.4 ± 1.6	0.81 ± 0.05
323.15 K	763 ± 1.5	0.78 ± 0.05
333.15 K	753.5 ± 1.5	0.75 ± 0.05

CCCC[N+]1(C)CCCC1.O=S(=O)([N-]S(=O)(=O)C(F)(F)F)C(F)(F)F + N#CCCCCC#N
[2]
Settings	mass density [kg/m3]	viscosity [mPa·s]
293.15 K	1399.8 ± 2.8	98.72 ± 6.3
298.15 K	1395.2 ± 2.8	77.66 ± 4.8
303.15 K	1390.7 ± 2.8	62.29 ± 3.8
313.15 K	1381.7 ± 2.8	41.87 ± 2.5
323.15 K	1372.8 ± 2.8	29.61 ± 1.8
333.15 K	1363.8 ± 2.8	21.82 ± 1.3

CCCC[N+]1(C)CCCC1.O=S(=O)([N-]S(=O)(=O)C(F)(F)F)C(F)(F)F
[1]
Settings	Normal melting temperature [°C]	electrical conductivity [S/m]	mass density [kg/m3]	viscosity [mPa·s]
293.15 K	–	–	1399.8 ± 2.8	98.72 ± 2.4
293.4 K	–	0.22 ± 0.006	–	–
296.1 K	–	0.249 ± 0.006	–	–
298.15 K	–	–	1395.2 ± 2.8	77.66 ± 1.3
299.3 K	–	0.285 ± 0.008	–	–
303.15 K	–	–	1390.7 ± 2.8	62.29 ± 0.6
303.3 K	–	0.334 ± 0.008	–	–
309.3 K	–	0.419 ± 0.01	–	–
313.15 K	–	–	1381.7 ± 2.8	41.87 ± 0.42
313.2 K	–	0.481 ± 0.012	–	–
320 K	–	0.6 ± 0.014	–	–
323.15 K	–	–	1372.8 ± 2.8	29.61 ± 0.29
323.2 K	–	0.66 ± 0.016	–	–
333.15 K	–	–	1363.8 ± 2.8	21.82 ± 0.22
333.5 K	–	0.88 ± 0.02	–	–
Metastable crystal	-20 ± 2	–	–	–

CCCC[N+]1(C)CCCC1.O=S(=O)([N-]S(=O)(=O)C(F)(F)F)C(F)(F)F + N#CCCCC#N
[2]
Settings	mass density [kg/m3]	viscosity [mPa·s]
293.15 K	1399.8 ± 2.8	98.72 ± 6.3
298.15 K	1395.2 ± 2.8	77.66 ± 4.8
303.15 K	1390.7 ± 2.8	62.29 ± 3.8
313.15 K	1381.7 ± 2.8	41.87 ± 2.5
323.15 K	1372.8 ± 2.8	29.61 ± 1.8
333.15 K	1363.8 ± 2.8	21.82 ± 1.3

N#CCCCC#N [pentanedinitrile]
[1]
Settings	mass density [kg/m3]	viscosity [mPa·s]
293.15 K	987 ± 2	6.97 ± 0.07
298.15 K	983.1 ± 2	6.12 ± 0.06
303.15 K	979.1 ± 2	5.39 ± 0.05
313.15 K	971.2 ± 2	4.25 ± 0.04
323.15 K	963.4 ± 1.9	3.47 ± 0.03
333.15 K	955.6 ± 1.9	2.88 ± 0.03

N#CCCCCC#N [hexanedinitrile]
[1]
Settings	Normal melting temperature [°C]	mass density [kg/m3]	viscosity [mPa·s]
293.15 K	–	962.3 ± 1.9	7.17 ± 0.44
298.15 K	–	958.6 ± 1.9	6.31 ± 0.38
303.15 K	–	954.8 ± 1.9	5.53 ± 0.34
313.15 K	–	947.2 ± 1.9	4.54 ± 0.28
323.15 K	–	939.8 ± 1.9	3.73 ± 0.23
333.15 K	–	932.3 ± 1.9	3.02 ± 0.18
Crystal	6.2 ± 2	–	–

CCCC[N+]1(C)CCCC1.O=S(=O)([N-]S(=O)(=O)C(F)(F)F)C(F)(F)F + CCCC#N
[2]
Settings	mass density [kg/m3]	viscosity [mPa·s]
293.15 K	1399.8 ± 2.8	98.72 ± 6.3
298.15 K	1395.2 ± 2.8	77.66 ± 4.8
303.15 K	1390.7 ± 2.8	62.29 ± 3.8
313.15 K	1381.7 ± 2.8	41.87 ± 2.5
323.15 K	1372.8 ± 2.8	29.61 ± 1.8
333.15 K	1363.8 ± 2.8	21.82 ± 1.3
